Here are results for 32 compounds from the NIST ThermoML archive (doi:10.1021/je0602925).

± gives the expanded uncertainty stated by the source.

This series is described as follows: activity coefficient (dimensionless); of the first substance listed, at infinite dilution; xn = mol fraction of the nth substance listed. To be noted: Liquid, Chromatography, x1 = 0.

`C#CCCCCCC` [1-octyne] + CCCCCCCCCCCCCC[P+](CCCCCC)(CCCCCC)CCCCCC.[Cl-]: the activity coefficient was 0.494 ± 0.038 (308.15 K), 0.514 ± 0.038 (318.15 K) and 0.526 ± 0.039 (328.15 K).

Take `C=CCCCCC` [1-heptene] + CCCCCCCCCCCCCC[P+](CCCCCC)(CCCCCC)CCCCCC.F[B-](F)(F)F: the activity coefficient amounted to 0.663 ± 0.045 (308.15 K), 0.647 ± 0.044 (318.15 K) and 0.637 ± 0.044 (328.15 K).

Consider `CCCCCC` [hexane] + CCCCCCCCCCCCCC[P+](CCCCCC)(CCCCCC)CCCCCC.O=S(=O)([N-]S(=O)(=O)C(F)(F)F)C(F)(F)F, for which the activity coefficient runs as follows: (308.15 K) 0.766 ± 0.05; (318.15 K) 0.751 ± 0.049; (328.15 K) 0.742 ± 0.049.

Regarding `C1CCCCCC1` [cycloheptane] + CCCCCCCCCCCCCC[P+](CCCCCC)(CCCCCC)CCCCCC.F[B-](F)(F)F, the activity coefficient (308.15 K) was 1 ± 0.063, the activity coefficient (318.15 K) is 0.979 ± 0.061 and the activity coefficient (328.15 K) was 0.965 ± 0.061.

Take `CCO` [ethanol] + CCCCCCCCCCCCCC[P+](CCCCCC)(CCCCCC)CCCCCC.O=S(=O)([N-]S(=O)(=O)C(F)(F)F)C(F)(F)F: the activity coefficient by setting is: (308.15 K) 0.884 ± 0.056; (318.15 K) 0.894 ± 0.057; (328.15 K) 0.902 ± 0.057.

For `C=CCCCCCC` [oct-1-ene] + CCCCCCCCCCCCCC[P+](CCCCCC)(CCCCCC)CCCCCC.[Cl-], the activity coefficient was 0.567 ± 0.041 (308.15 K), 0.557 ± 0.04 (318.15 K) and 0.552 ± 0.04 (328.15 K).

As to `c1ccccc1` [benzene] + CCCCCCCCCCCCCC[P+](CCCCCC)(CCCCCC)CCCCCC.F[B-](F)(F)F, the activity coefficient came out at 0.37 ± 0.033 (308.15 K), 0.367 ± 0.033 (318.15 K) and 0.366 ± 0.033 (328.15 K).

As for `c1ccccc1` [benzene] + CCCCCCCCCCCCCC[P+](CCCCCC)(CCCCCC)CCCCCC.O=S(=O)([N-]S(=O)(=O)C(F)(F)F)C(F)(F)F, the activity coefficient reads like this: (308.15 K) 0.406 ± 0.034; (318.15 K) 0.403 ± 0.034; (328.15 K) 0.402 ± 0.034.

As for `C1CCCCCC1` [cycloheptane] + CCCCCCCCCCCCCC[P+](CCCCCC)(CCCCCC)CCCCCC.O=S(=O)([N-]S(=O)(=O)C(F)(F)F)C(F)(F)F, the activity coefficient by setting is: (308.15 K) 0.787 ± 0.051; (318.15 K) 0.779 ± 0.051; (328.15 K) 0.774 ± 0.051.

On to `C1CCCCC1` [cyclohexane] + CCCCCCCCCCCCCC[P+](CCCCCC)(CCCCCC)CCCCCC.O=S(=O)([N-]S(=O)(=O)C(F)(F)F)C(F)(F)F, for which the activity coefficient runs as follows: (308.15 K) 0.612 ± 0.043; (318.15 K) 0.609 ± 0.043; (328.15 K) 0.607 ± 0.042.

As for `CCCCC` [pentane] + CCCCCCCCCCCCCC[P+](CCCCCC)(CCCCCC)CCCCCC.[Cl-], the activity coefficient is, setting by setting: (308.15 K) 0.607 ± 0.042; (318.15 K) 0.599 ± 0.042; (328.15 K) 0.594 ± 0.042.

As for `C1CCCCCC1` [cycloheptane] + CCCCCCCCCCCCCC[P+](CCCCCC)(CCCCCC)CCCCCC.[Cl-], the activity coefficient came out at 0.861 ± 0.055 (308.15 K), 0.753 ± 0.05 (318.15 K) and 0.763 ± 0.05 (328.15 K).

`C=CCCCCCC` [oct-1-ene] + CCCCCCCCCCCCCC[P+](CCCCCC)(CCCCCC)CCCCCC.O=S(=O)([N-]S(=O)(=O)C(F)(F)F)C(F)(F)F: the activity coefficient reads like this: (308.15 K) 0.617 ± 0.043; (318.15 K) 0.605 ± 0.042; (328.15 K) 0.598 ± 0.042.

For the compound `C=CCCCCC` [1-heptene] + CCCCCCCCCCCCCC[P+](CCCCCC)(CCCCCC)CCCCCC.O=S(=O)([N-]S(=O)(=O)C(F)(F)F)C(F)(F)F, the activity coefficient reads like this: (308.15 K) 0.558 ± 0.04; (318.15 K) 0.549 ± 0.04; (328.15 K) 0.543 ± 0.04.

As for `C#CCCCCC` [1-heptyne] + CCCCCCCCCCCCCC[P+](CCCCCC)(CCCCCC)CCCCCC.F[B-](F)(F)F, the activity coefficient (308.15 K) is 0.374 ± 0.033, the activity coefficient (318.15 K) was 0.389 ± 0.034 and the activity coefficient (328.15 K) worked out at 0.399 ± 0.034.

For `CCCCCCCC` [octane] + CCCCCCCCCCCCCC[P+](CCCCCC)(CCCCCC)CCCCCC.O=S(=O)([N-]S(=O)(=O)C(F)(F)F)C(F)(F)F, the activity coefficient (308.15 K) is 0.843 ± 0.054, the activity coefficient (318.15 K) turned out to be 0.825 ± 0.053 and the activity coefficient (328.15 K) came to 0.814 ± 0.053.

With `C=CCCCCCC` [oct-1-ene] + CCCCCCCCCCCCCC[P+](CCCCCC)(CCCCCC)CCCCCC.F[B-](F)(F)F, the activity coefficient is, setting by setting: (308.15 K) 0.769 ± 0.05; (318.15 K) 0.748 ± 0.049; (328.15 K) 0.734 ± 0.049.

As for `CO` [methanol] + CCCCCCCCCCCCCC[P+](CCCCCC)(CCCCCC)CCCCCC.O=S(=O)([N-]S(=O)(=O)C(F)(F)F)C(F)(F)F, the activity coefficient was 0.942 ± 0.059 (308.15 K), 0.958 ± 0.06 (318.15 K) and 0.989 ± 0.062 (328.15 K).

Regarding `C1CCCC1` [cyclopentane] + CCCCCCCCCCCCCC[P+](CCCCCC)(CCCCCC)CCCCCC.F[B-](F)(F)F, the activity coefficient was 0.638 ± 0.044 (308.15 K), 0.63 ± 0.044 (318.15 K) and 0.625 ± 0.043 (328.15 K).

With `C1CCCCC1` [cyclohexane] + CCCCCCCCCCCCCC[P+](CCCCCC)(CCCCCC)CCCCCC.F[B-](F)(F)F, the activity coefficient by setting is: (308.15 K) 0.73 ± 0.048; (318.15 K) 0.719 ± 0.048; (328.15 K) 0.712 ± 0.047.

With `CCCCCCC` [heptane] + CCCCCCCCCCCCCC[P+](CCCCCC)(CCCCCC)CCCCCC.O=S(=O)([N-]S(=O)(=O)C(F)(F)F)C(F)(F)F, the activity coefficient (308.15 K) turned out to be 0.783 ± 0.051, the activity coefficient (318.15 K) came out at 0.769 ± 0.05 and the activity coefficient (328.15 K) was 0.761 ± 0.05.

In the case of `C#CCCCC` [1-hexyne] + CCCCCCCCCCCCCC[P+](CCCCCC)(CCCCCC)CCCCCC.O=S(=O)([N-]S(=O)(=O)C(F)(F)F)C(F)(F)F, the activity coefficient is, setting by setting: (308.15 K) 0.454 ± 0.036; (318.15 K) 0.463 ± 0.036; (328.15 K) 0.468 ± 0.037.

Consider `CCCCCC` [hexane] + CCCCCCCCCCCCCC[P+](CCCCCC)(CCCCCC)CCCCCC.F[B-](F)(F)F, for which the activity coefficient (308.15 K) is 0.968 ± 0.061, the activity coefficient (318.15 K) is 0.942 ± 0.059 and the activity coefficient (328.15 K) was determined as 0.925 ± 0.058.

In the case of `CCO` [ethanol] + CCCCCCCCCCCCCC[P+](CCCCCC)(CCCCCC)CCCCCC.[Cl-], the activity coefficient by setting is: (308.15 K) 0.74 ± 0.049; (318.15 K) 0.737 ± 0.049; (328.15 K) 0.735 ± 0.049.

On to `CCCCC` [pentane] + CCCCCCCCCCCCCC[P+](CCCCCC)(CCCCCC)CCCCCC.F[B-](F)(F)F, for which the activity coefficient runs as follows: (308.15 K) 0.722 ± 0.048; (318.15 K) 0.706 ± 0.047; (328.15 K) 0.695 ± 0.047.

Regarding `CO` [methanol] + CCCCCCCCCCCCCC[P+](CCCCCC)(CCCCCC)CCCCCC.F[B-](F)(F)F, the activity coefficient was 6.68 ± 0.46 (308.15 K), 6.38 ± 0.43 (318.15 K) and 6.1 ± 0.42 (328.15 K).

As to `C#CCCCCC` [1-heptyne] + CCCCCCCCCCCCCC[P+](CCCCCC)(CCCCCC)CCCCCC.[Cl-], the activity coefficient reads like this: (308.15 K) 0.479 ± 0.037; (318.15 K) 0.494 ± 0.038; (328.15 K) 0.504 ± 0.038.

Turning to `c1ccccc1` [benzene] + CCCCCCCCCCCCCC[P+](CCCCCC)(CCCCCC)CCCCCC.[Cl-], the activity coefficient by setting is: (308.15 K) 0.408 ± 0.034; (318.15 K) 0.403 ± 0.034; (328.15 K) 0.4 ± 0.034.

As to `CO` [methanol] + CCCCCCCCCCCCCC[P+](CCCCCC)(CCCCCC)CCCCCC.[Cl-], the activity coefficient runs as follows: (308.15 K) 0.887 ± 0.056; (318.15 K) 0.879 ± 0.056; (328.15 K) 0.873 ± 0.056.

On to `CCCCC` [pentane] + CCCCCCCCCCCCCC[P+](CCCCCC)(CCCCCC)CCCCCC.O=S(=O)([N-]S(=O)(=O)C(F)(F)F)C(F)(F)F, for which the activity coefficient (308.15 K) was 0.611 ± 0.043, the activity coefficient (318.15 K) stood at 0.602 ± 0.042 and the activity coefficient (328.15 K) was 0.597 ± 0.042.

Regarding `CCCCCC` [hexane] + CCCCCCCCCCCCCC[P+](CCCCCC)(CCCCCC)CCCCCC.[Cl-], the activity coefficient reads like this: (308.15 K) 0.766 ± 0.05; (318.15 K) 0.753 ± 0.05; (328.15 K) 0.746 ± 0.049.

As to `C1CCCC1` [cyclopentane] + CCCCCCCCCCCCCC[P+](CCCCCC)(CCCCCC)CCCCCC.[Cl-], the activity coefficient runs as follows: (308.15 K) 0.579 ± 0.041; (318.15 K) 0.576 ± 0.041; (328.15 K) 0.574 ± 0.041.
